From US20240116845A1, “INDENE COMPOUNDS, PHARMACEUTICAL COMPOSITIONS THEREOF, AND THEIR THERAPEUTIC APPLICATIONS” (NucMito Pharmaceuticals Co., Ltd., priority 2021, published 2024) come the findings set out here.

Type in all cases: cell-based
Assay [1] concerns alpha-smooth muscle actin (α-SMA). The assay is described as follows: Inhibition of TGF-β induced expression of alpha-smooth muscle actin in CFSC cells (western blot). Particulars: compound at 10 μM, TGF-β (10 ng/mL), 24 hours. The gist of the method: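 Read-out is percent decrease in α-SMA western-blot band intensity, β-actin also probed, relative to TGF-β-only cells. CFSC cells were co-treated for 24 h at 37 °C with 10 ng/mL TGF-β and 10 μM compound in serum-free DMEM.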
A general note: Immunoblotting shows a protein as a band on a membrane.

Assay [2] relates to A431 (epidermoid carcinoma). Kind of assay: Antiproliferative activity, CCK-8 cell viability. Particulars: Homo sapiens, A-431, 72 h, read-out: Inhibition of Cancerous Cells, A431; for inhibition at 3.3 µM: compound concentration of 3.3 μM; for inhibition at 10 µM: compound concentration of 10 μM; for inhibition at 30 µM: compound concentration of 30 μM. The method, boiled down:
(§1)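 Viability relative to DMSO controls came from CCK-8 absorbance at 450 nm after 72 h exposure at 37°C. Compound concentrations were 3.3, 10 or 30 μM, in DMEM plus 10% FBS. Results are categorised by inhibition level: at least 50%, 30 to under 50%, or under 30%.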

Assay [3] deals with A549 (lung adenocarcinoma). Kind of assay: Antiproliferative activity, CCK-8 cell viability. Particulars: Homo sapiens, 72 h, read-out: Inhibition of Cancerous Cells, A549; for inhibition at 3.3 µM: compound concentration of 3.3 μM; for inhibition at 10 µM: compound concentration of 10 μM; for inhibition at 30 µM: compound concentration of 30 μM.
For assay [4], the system named is B16F10 (malignant melanoma). The assay is described as follows: Antiproliferative activity, CCK-8 cell viability. To be noted: Mus musculus, B16-F10, 72 h, read-out: Inhibition of Cancerous Cells, B16F10; for inhibition at 3.3 µM: compound concentration of 3.3 μM; for inhibition at 10 µM: compound concentration of 10 μM; for inhibition at 30 µM: compound concentration of 30 μM. The method, boiled down:
as §1

The subject of another assay is HeLa (cervical cancer). Kind of assay: Antiproliferative activity, CCK-8 cell viability. To be noted: Homo sapiens, 72 h, read-out: Inhibition of Cancerous Cells, HELA; for inhibition at 3.3 µM: compound concentration of 3.3 μM; for inhibition at 10 µM: compound concentration of 10 μM; for inhibition at 30 µM: compound concentration of 30 μM.
Another assay deals with HepG2 (liver cancer). The assay is described as follows: Antiproliferative activity, CCK-8 cell viability. Particulars: Homo sapiens, 72 h, read-out: Inhibition of Cancerous Cells, HepG2; for inhibition at 3.3 µM: compound concentration of 3.3 μM; for inhibition at 10 µM: compound concentration of 10 μM; for inhibition at 30 µM: compound concentration of 30 μM. The method, boiled down: as §1

For assay [5], the system named is MDA-MB-231 (breast cancer). Kind of assay: Antiproliferative activity, CCK-8 cell viability. Particulars: Homo sapiens, 72 h, read-out: Inhibition of Cancerous Cells, MDA-MB-231; for inhibition at 3.3 µM: compound concentration of 3.3 μM; for inhibition at 10 µM: compound concentration of 10 μM; for inhibition at 30 µM: compound concentration of 30 μM. The gist of the method:
as §1

The subject of the next assay is SW480 (colon cancer). The assay is described as follows: Antiproliferative activity, CCK-8 cell viability. Particulars: Homo sapiens, 72 h, read-out: Inhibition of Cancerous Cells, SW480; for inhibition at 3.3 µM: compound concentration of 3.3 μM; for inhibition at 10 µM: compound concentration of 10 μM; for inhibition at 30 µM: compound concentration of 30 μM. The method, boiled down:
as §1

SMILES strings stand for the structures. Bounds are passed on as bounds.

Consider `CC1=C(CC(=O)O)c2cc(F)cc(F)c2/C1=C\c1cccc(Oc2ccccc2)c1` [Compound D20, 2-[(1Z)-5,7-Difluoro-1-(3-(phenoxy)benzylidene)-2-methyl-1H-inden-3-yl]-acetic acid], for which the inhibition at 10 µM in assay [1] is not below 80%; in assay [2] it was less than 30%; in assay [3], not below 50%; in assay [4] it was not below 50%; in the assay on HeLa (cervical cancer), less than 30%; in the assay with HepG2 (liver cancer), not below 50%. Also, the inhibition at 10 µM (in assay [5]; with SW480 (colon cancer)) was not below 50% in each case. Besides, the inhibition at 3.3 µM in assay [2] is less than 30%; in assay [3], 30 to 50%; in assay [4], 30 to 50%; with HeLa (cervical cancer), less than 30%; in the assay on HepG2 (liver cancer), not below 50%; in assay [5], 30 to 50%. Further, the inhibition at 3.3 µM in the assay with SW480 (colon cancer) is not below 50%. Also, the inhibition at 30 µM (in assay [2]; in assay [3]; in assay [4]; with HeLa (cervical cancer); in the assay with HepG2 (liver cancer); in assay [5]) was not below 50% each time. In the assay on SW480 (colon cancer), the inhibition at 30 µM is not below 50%.
For the molecule `CC1=C(CC(=O)O)c2c(F)cc(F)cc2/C1=C\c1cccc(Oc2ccccc2)c1` [Compound D21, 2-[(1Z)-4,6-Difluoro-1-(3-(phenoxy)benzylidene)-2-methyl-1H-inden-3-yl]-acetic acid], the inhibition at 10 µM was not below 80% in assay [1]; 30 to 50% in assay [2]; not below 50% in assay [3]; not below 50% in assay [4]; not below 50% in the assay with HeLa (cervical cancer); 30 to 50% in the assay with HepG2 (liver cancer). Moreover, the inhibition at 10 µM (in assay [5]; with SW480 (colon cancer)) was not below 50% in each case. For the same molecule, the inhibition at 3.3 µM in assay [2] was less than 30%; in assay [3], 30 to 50%; in assay [4], not below 50%; in the assay on HeLa (cervical cancer) it was less than 30%; in the assay on HepG2 (liver cancer), 30 to 50%; in assay [5], not below 50%. In the assay with SW480 (colon cancer), the inhibition at 3.3 µM was in the range of 30 to 50%. Further, the inhibition at 30 µM (in assay [2]; in assay [3]; in assay [4]; with HeLa (cervical cancer); in the assay with HepG2 (liver cancer); in assay [5]) was not below 50% each time. Further, the inhibition at 30 µM in the assay with SW480 (colon cancer) is not below 50%.
For the molecule `COc1ccc(Oc2cccc(/C=C3/C(C)=C(CC(=O)O)c4cc(F)ccc43)c2)cc1` [Compound D22, 2-[(1Z)-5-Fluoro-2-methyl-1-({3-[4-methoxyphenoxy]phenyl}methylidene)-1H-inden-3-yl]acetic acid], the inhibition at 10 µM in assay [1] is not below 80%; in assay [2], less than 30%; in assay [3] it was 30 to 50%; in assay [4] it was not below 50%; in the assay with HeLa (cervical cancer), not below 50%; with HepG2 (liver cancer) it was 30 to 50%. The inhibition at 10 µM is not below 50% in assay [5] and 30 to 50% in the assay on SW480 (colon cancer). Also, the inhibition at 3.3 µM in assay [2] is less than 30%; in assay [3] it was 30 to 50%; in assay [4] it was less than 30%; in the assay on HeLa (cervical cancer), 30 to 50%; in the assay on HepG2 (liver cancer), less than 30%; in assay [5], not below 50%. In the assay on SW480 (colon cancer), the inhibition at 3.3 µM was less than 30%. Further, the inhibition at 30 µM (in assay [2]; in assay [3]; in assay [4]; in the assay with HeLa (cervical cancer); with HepG2 (liver cancer); in assay [5]) was not below 50% throughout. Moreover, the inhibition at 30 µM in the assay with SW480 (colon cancer) was not below 50%.
Regarding `CC1=C(CC(=O)O)c2cc(F)ccc2/C1=C\c1ccc(F)c(Oc2ccccc2)c1` [Compound D23, 2-[(1Z)-5-Fluoro-1-(4-fluoro-3-(phenoxy)benzylidene)-2-methyl-1H-inden-3-yl]-acetic acid], the inhibition at 10 µM in assay [1] was not below 80%; in assay [2] it was 30 to 50%; in assay [3], not below 50%; in assay [4], not below 50%; in the assay with HeLa (cervical cancer), not below 50%; in the assay on HepG2 (liver cancer), not below 50%. The inhibition at 10 µM in assay [5] was not below 50%; in the assay on SW480 (colon cancer) it was 30 to 50%. Moreover, the inhibition at 3.3 µM was less than 30% in assay [2]; less than 30% in assay [3]; less than 30% in assay [4]; less than 30% with HeLa (cervical cancer); 30 to 50% in the assay on HepG2 (liver cancer); not below 50% in assay [5]. Also, the inhibition at 3.3 µM in the assay on SW480 (colon cancer) was less than 30%. Besides, the inhibition at 30 µM (in assay [2]; in assay [3]; in assay [4]; with HeLa (cervical cancer); in the assay with HepG2 (liver cancer); in assay [5]) was not below 50% throughout. Further, the inhibition at 30 µM in the assay with SW480 (colon cancer) is not below 50%.
In the case of `CC1=C(CC(=O)O)c2cc(F)ccc2/C1=C\c1cccc(Oc2ccc(Cl)cc2)c1` [Compound D25, 2-[(1Z)-5-Fluoro-2-methyl-1-({3-[4-chlorophenoxy]phenyl}methylidene)-1H-inden-3-yl]acetic acid], the inhibition at 10 µM in assay [1] is not below 80%; in assay [2], less than 30%; in assay [3], 30 to 50%; in assay [4], not below 50%; in the assay with HeLa (cervical cancer), not below 50%; in the assay on HepG2 (liver cancer) it was not below 50%. Further, the inhibition at 10 µM (in assay [5]; with SW480 (colon cancer)) was not below 50% in each case. The inhibition at 3.3 µM in assay [2] was less than 30%; in assay [3], less than 30%; in assay [4], 30 to 50%; in the assay with HeLa (cervical cancer), 30 to 50%; in the assay on HepG2 (liver cancer) it was 30 to 50%; in assay [5], not below 50%. The inhibition at 3.3 µM with SW480 (colon cancer) was not below 50%. The inhibition at 30 µM (in assay [2]; in assay [3]; in assay [4]; with HeLa (cervical cancer); in the assay on HepG2 (liver cancer); in assay [5]) was not below 50% throughout. Besides, the inhibition at 30 µM in the assay with SW480 (colon cancer) was not below 50%.
With `CC1=C(CC(=O)O)c2cc(F)ccc2/C1=C\c1cccc(Oc2cccc(C(F)(F)F)c2)c1` [Compound D27, 2-[(1Z)-5-Fluoro-2-methyl-1-({3-[3-trifluoromethylphenoxy]phenyl}-methylidene)-1H-inden-3-yl]acetic acid], the inhibition at 10 µM in assay [1] was not below 80%; in assay [2] it was not below 50%; in assay [3], 30 to 50%; in assay [4], 30 to 50%; in the assay on HeLa (cervical cancer), 30 to 50%; with HepG2 (liver cancer), not below 50%. In addition, the inhibition at 10 µM (in assay [5]; with SW480 (colon cancer)) was not below 50% throughout. Also, the inhibition at 3.3 µM in assay [2] was less than 30%; in assay [3], 30 to 50%; in assay [4], less than 30%; in the assay on HeLa (cervical cancer), less than 30%; with HepG2 (liver cancer), not below 50%; in assay [5], not below 50%. Moreover, the inhibition at 3.3 µM in the assay with SW480 (colon cancer) is 30 to 50%. Also, the inhibition at 30 µM (in assay [2]; in assay [3]; in assay [4]; with HeLa (cervical cancer); with HepG2 (liver cancer); in assay [5]) was not below 50% each time. For the same molecule, in the assay with SW480 (colon cancer), the inhibition at 30 µM was not below 50%.

A word on the inhibition: it is the percentage by which the read-out fell short of the control.
